Test results as given in US20090170869A1, “PIPERAZINE DERIVATIVE HAVING AFFINITY FOR THE HISTAMINE H3 RECEPTOR” (priority 2007, published 2009).

Tests used:
[1] = molecular target: T1, brain histamine H3 receptor (Rattus norvegicus, UniProt Q9QYN8); assay: Rat ex vivo binding studies - rat brain histamine H3 receptor occupancy ([3H]-R-α-methylhistamine); format: in vivo; details: for inhibition of [3H]-R-α-methylhistamine specific binding to the H3 receptor (surrogate for rat brain H3 receptor occupancy): 10 mg/kg oral; for specific binding of [3H]-R-α-methylhistamine to the H3 receptor: rats n=3, 10 mg/kg oral, mean ± SEM
T1 construct: from tissue; host or cells: cerebral cortex homogenate of adult male Lister hooded rats
Procedure: Ex vivo binding studies were carried out to determine brain histamine H3 receptor occupancy in rats at certain time points after oral administration of a test compound.
Adult male rats (Lister hooded 200-250 g, Charles River, UK) received vehicle (1% w/v aqueous methylcellulose) (control) or the test compound (10 mg/kg) by oral gavage (n=3 per group) and were sacrificed 1 or 4 hours following oral dosing. The 1 hour and 4 hour studies were not necessarily done on the same day. Terminal blood samples were collected and brains rapidly removed. Cerebral cortex tissue was dissected from half of each brain for ex vivo binding; the other half brain can be used for pharmacokinetic analysis of brain concentrations of each compound. All dissected tissue samples were snap-frozen in liquid nitrogen, and stored at −80° C. until use. The tissues were rapidly thawed and homogenised in approximately 30 volumes of ice cold assay reaction buffer. The assay reaction buffer contained 50 mM Tris-HCl (made up using Trizma pre-set crystals pH 7.7 @25° C., Sigma cat. No. T8068-250G) and 5 mM EDTA, with a final buffer pH of 7.2 to 7.8, usually about 7.4. The crude homogenate (600-800 μg/well) was then used to measure H3 receptor binding using [^3H]-R-α-methylhistamine as radioligand. Assays measuring total binding of [^3H]-R-α-methylhistamine consisted of 50 μl assay reaction buffer, 400 μl of homogenate (corresponding to 600-800 μg/well) and 50 μl of 2 nM R(−)α-Methyl[imidazole-2,5(n)-3H]histamine dihydrochloride ([^3H]-R-α-methylhistamine; specific activity, 24 Ci mmol^−1, Amersham Biosciences, catalogue no. TRK1017). Incubations with [^3H]-R-α-methylhistamine were for 45 min at 30° C. Non-specific binding of [^3H]-R-α-methylhistamine was determined in parallel using the same assay except that 50 μl of 10 μM imetit (an H3 receptor agonist, e.g. available from Tocris) was used instead of the 50 μl of assay reaction buffer. The experiments were terminated by rapid filtration through Whatman GF/B filters (pre-soaked in 0.3% v/v polyethyleneimine (PEI)), and then the filters were washed through with 4×5 ml of ice cold harvesting buffer. The harvesting buffer contained 50 mM Tris-HCl (from Trizma pre-set crystals pH 7.7 @ 25° C.) and 5 mM MgCl2, with a final buffer pH of 7.2 to 7.8, usually about 7.4. Filters were dried and added to vials each containing 4 ml Ultima Gold MV scintillation fluid (Hewlett Packard) and radioactivity determined by liquid scintillation spectrometry using a Packard Tri-Carb 2500TR liquid scintillation counter.
Specific binding of [^3H]-R-α-methylhistamine to the H3 receptor was determined by the subtraction of the value obtained for non-specific binding from the value obtained for total binding.
Protein concentrations were determined using the Bradford assay method (Bio-Rad
Protein Assay Dye Reagent Concentrate, catalogue no. 500-0006; from Bio-Rad Laboratories GmbH, Heidemannstrasse 164, 80939 Muenchen, Germany; or from Bio-Rad, York, UK) with bovine serum albumin as a standard. Specific radioactivity in the samples was corrected for protein (i.e. per microgram of protein).
The specific binding of [^3H]-R-α-methylhistamine to the H3 receptor is expressed as a mean (n=3 rats)±SEM (standard error of the mean), as a percentage of vehicle-treated control animals. Data is also expressed as inhibition of [^3H]-R-α-methylhistamine specific binding to the H3 receptor, as a surrogate measure for H3 receptor occupancy by the test compound, calculated as 100% minus the % mean specific binding of [^3H]-R-α-methylhistamine to the H3 receptor.

[2] = Plasma clearance in the pig-PET study; format: in vivo; details: Yorkshire-Landrace, iv, 50 ug/kg, 50 micrograms/kg i.v.
[3] = test system: male Sprague Dawley rats; assay: Toxicity Study 1: 7-day oral repeat-dose study in male Sprague Dawley rats; format: in vivo, rat; details: for tolerability: male rats
Procedure: Three male rats were added at each non-zero dose level for toxicokinetic evaluation. All doses and concentrations, including analyte concentration in plasma, are expressed in terms of the parent “free base” compound.
The following endpoints/parameters were evaluated for toxicology animals: clinical observations, body weights, food consumption measurements, selected haematology and selected clinical chemistry results, liver weights, selected macroscopic and microscopic observations, and selected hepatic gene expression analysis. Toxicokinetic evaluation (serial profiling) was performed on samples collected from satellite animals on Days 1 and 7. For male rats dosed at 30 or 100 mg/kg/day, histopathology observations carried out were on kidneys, mesentery and mandibular lymph node only. For male rats dosed at 0 mg/kg/day (control) and 300 mg/kg/day, histopathology observations carried out were on adrenals, brain, heart, kidneys, liver, lung, mandibular lymph node, mesentery, stomach, testes, and thymus (except that mandibular lymph node observations were for 0 mg/kg/day dosed rats only).

[4] = test system: Sprague Dawley rats; assay: Toxicity Study 2: 7-day oral dose range-finding study in Sprague Dawley rats; format: in vivo, rat
Procedure: Three male rats and three female rats were added at 600 mg/kg/day and 3 female rats were added at 300 mg/kg/day for toxicokinetic evaluation.
The following endpoints/parameters were evaluated for toxicology animals: clinical observations, body weights, food consumption, selected haematology, selected clinical chemistry, liver weights, and selected macroscopic and microscopic observations. Toxicokinetic evaluation was performed on samples collected on Day 1 (300 and 600 mg/kg/day dosing) and Day 7 (300 mg/kg/day dosing only).

[5] = molecular target: H3 receptor (Sus scrofa, UniProt A0A287B9V8); assay: Pig-PET study with [11C]GSK189254: pig brain H3 receptor occupancy over time and kon-koff limited model; details: 50 micrograms/kg i.v.; for Measured H3 receptor occupancy @ 10 min: 10 minutes post administration; for Measured H3 receptor occupancy @ 2.5 h: 2.5 hours post administration; for Measured H3 receptor occupancy @ 6 h: 6 hours post administration; for Kd: Kd (koff/kon)
[6] = rat, in vivo, po, 300 mg/kg/day
[7] = mean ± standard deviation, n=3 pigs

T1 sequence (Q9QYN8 whole entry): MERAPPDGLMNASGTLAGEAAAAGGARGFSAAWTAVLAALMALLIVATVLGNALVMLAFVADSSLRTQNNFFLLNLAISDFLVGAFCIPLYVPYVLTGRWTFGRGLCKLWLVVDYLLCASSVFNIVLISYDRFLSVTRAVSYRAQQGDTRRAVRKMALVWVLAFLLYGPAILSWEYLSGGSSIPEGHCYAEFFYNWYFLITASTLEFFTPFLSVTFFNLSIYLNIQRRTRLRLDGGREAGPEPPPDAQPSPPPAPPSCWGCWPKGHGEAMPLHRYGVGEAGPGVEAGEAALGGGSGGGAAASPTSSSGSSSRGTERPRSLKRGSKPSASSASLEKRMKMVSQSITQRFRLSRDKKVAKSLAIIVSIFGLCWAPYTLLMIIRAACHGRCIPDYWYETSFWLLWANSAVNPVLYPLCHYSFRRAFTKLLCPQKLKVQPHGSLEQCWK
Sequence of H3 receptor (A0A287B9V8 1-448): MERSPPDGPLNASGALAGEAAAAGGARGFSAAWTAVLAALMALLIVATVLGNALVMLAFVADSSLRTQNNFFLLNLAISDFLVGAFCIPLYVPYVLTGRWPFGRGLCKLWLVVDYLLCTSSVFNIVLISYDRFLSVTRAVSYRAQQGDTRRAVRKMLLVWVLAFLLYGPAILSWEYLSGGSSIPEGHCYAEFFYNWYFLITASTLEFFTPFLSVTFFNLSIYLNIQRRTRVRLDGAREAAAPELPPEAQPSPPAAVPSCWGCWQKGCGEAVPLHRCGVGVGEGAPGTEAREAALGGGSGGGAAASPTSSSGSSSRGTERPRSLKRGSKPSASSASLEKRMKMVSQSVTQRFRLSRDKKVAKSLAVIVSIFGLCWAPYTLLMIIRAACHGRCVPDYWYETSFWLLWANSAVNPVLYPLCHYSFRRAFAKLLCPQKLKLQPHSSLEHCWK

CC(C)N1CCN(C(=O)c2ccc(OC3CCOCC3)cc2)CC1.Cl [Example E1]
inhibition of [3H]-R-α-methylhistamine specific binding to the H3 receptor (surrogate for rat brain H3 receptor occupancy) ([1]; 1 hour after dosing): about 60%
inhibition of [3H]-R-α-methylhistamine specific binding to the H3 receptor (surrogate for rat brain H3 receptor occupancy) ([1]; 4 hours after dosing): about 16%
specific binding of [3H]-R-α-methylhistamine to the H3 receptor ([1]; sacrificed 1 hour after dosing): 40%+2%
specific binding of [3H]-R-α-methylhistamine to the H3 receptor ([1]; sacrificed 4 hours after dosing): 84%+6%
clearance ([2]; average model (from average plasma data)): 38.3 mL/min
clearance ([2]; mean of pigs 1-3): 41.7 mL/min
clearance ([2]; pig 1): 48.3 mL/min
clearance ([2]; pig 2): 50 mL/min
clearance ([2]; pig 3): 30 mL/min
tolerability ([3]; 300 mg/kg/day oral for 7 days (measured as free base)): moderately well tolerated
tolerability ([3]; 30 or 100 mg/kg/day oral for 7 days (measured as free base)): well tolerated
food consumption [3, 6]: ca. 0.80 × pretreatment
periarterial inflammatory cell infiltrate in the hilar region of the kidneys [3, 6]: minimal in severity, was noted in the hilar region of the kidneys of all four male rats
tolerability ([4]; conclusion from Toxicity Studies 1 and 2: male and female rats, 7 days oral, doses up to 300 mg/kg/day): well tolerated or moderately well tolerated
tolerability ([4]; female rats, 300 mg/kg/day oral for 7 days (measured as free base)): moderately well tolerated
tolerability ([4]; male or female rats, 600 mg/kg/day oral (only 2 days)): not tolerated
certain haematology and other clinical chemistry parameters [4, 6]: increased
clinical signs [4, 6]: chewing movements, rubbing chin on the cage floor, and certain other clinical signs
glandular dilation of the fundic region of the stomach [4, 6]: of minimal severity, was observed in most female rats
reduction in pig brain H3 receptor occupancy as compared to salt B ([5]; n=3 pigs, preliminary measurements): generally faster reduction
Measured H3 receptor occupancy @ 10 min [5, 7]: 58% ± 4%
Measured H3 receptor occupancy @ 10 min ([5]; pig 1): 61%
Measured H3 receptor occupancy @ 10 min ([5]; pig 2): 54%
Measured H3 receptor occupancy @ 10 min ([5]; pig 3): 58%
Measured H3 receptor occupancy @ 2.5 h [5, 7]: 30% ± 11%
Measured H3 receptor occupancy @ 2.5 h ([5]; pig 1): 43%
Measured H3 receptor occupancy @ 2.5 h ([5]; pig 2): 24%
Measured H3 receptor occupancy @ 2.5 h ([5]; pig 3): 22%
Measured H3 receptor occupancy @ 6 h [5, 7]: 14% ± 14%
Measured H3 receptor occupancy @ 6 h ([5]; pig 1): 30%
Measured H3 receptor occupancy @ 6 h ([5]; pig 2): 7%
Measured H3 receptor occupancy @ 6 h ([5]; pig 3): 5%
Kd ([5]; average model (from average plasma data and average occupancy)): 9.14 nM
Kd ([5]; mean of pigs 1-3): 9.08 nM
Kd ([5]; pig 1, in vivo PK/RO model): 4.47 nM
Kd ([5]; pig 2, in vivo PK/RO model): 9.35 nM
Kd ([5]; pig 3, in vivo PK/RO model): 13.4 nM
